Common to all, as to assay type: physicochemical
A short description of data set [1]: Stern-Volmer analysis of singlet oxygen suppression. From the text: The singlet oxygen phosphorescence intensity in the absence of the compound of Formulas I(a)(1), II(a)(1), II(d)(1), II(e)(1), or a mixture of II(b)(1) and II(c)(1) (I0) divided by the singlet oxygen phosphorescence intensity in the presence of compounds of Formula I/II(I) was plotted against the Formula I/II concentration (FIG. 16). From the slope of these plots (Stern-Volmer constant) and the lifetime of the quenched excited state, the bimolecular quenching constant can be extracted. If the excited state, which is quenched by the compound of Formula I(a)(1) (which causes a reduction in singlet oxygen production) is the singlet excited state of protoporphyrin IX then, using the previously measured fluorescence lifetime in acetonitrile (if =12.7 ns) a quenching rate constant of 2.4×10^9 M^−1 s^−1 is estimated. […] The rate constant derived from singlet oxygen phosphorescence quenching (FIG. 16) is only half of the more directly derived rate constant from fluorescence quenching, which could be caused by the difference in solvents or by some contribution of protoporphyrin triplet quenching by the compound of Formula I(a)(1). […] This rate constant is 5 times higher than the directly measured rate constant by laser flash photolysis (6.1×10^6 M^−1 s^−1). […] It must be noted that protoporphyrin IX triplet lifetime of ˜1 μs in air saturated DMSO was only estimated based on the directly measured triplet lifetime in air saturated acetonitrile and considering the different oxygen concentration in DMSO compared to acetonitrile. If necessary, the protoporphyrin IX triplet lifetime in air saturated DMSO can easily be measured by laser flash photolysis. The complex reaction mechanism is summarized in Scheme 1 (FIG. 17).
The biomolecular quenching rate constants for singlet excited state (kq^S) and triplet excited state (kq^T) quenching of PPIX by stabilizers in acetonitrile solutions at room temperature is shown in Table 4, as well and the Stern-Volmer rate constants.
Stern-Volmer constants are in direct correlation with the singlet oxygen suppression efficiency. Table 4 (above) summarizes the Stern-Volmer constants and PPIX singlet and triplet state quenching rate constants. Three different ranges of Stern-Volmer constants were observed. […] For compounds I(a)(1), II(d)(1), and the mixture of II(b)(1) and II(c)(1), Stern-Volmer constants of about 30 M^−1 were observed. For these three stabilizers, high PPIX singlet quenching rate constants (about 5×10^9 M^−1 s^−1) but low triplet quenching rate constants (<10^9 M^−1 s^−1) were observed. Here, the singlet oxygen suppression is probably dominated by PPIX singlet excited state quenching by these stabilizers. […] Because of the very high PPIX triplet quenching rate constant by compound II(a)(1) (3.2×10^9 M^−1 s^−1), the singlet oxygen suppression is probably dominated by triplet quenching. […] These kinetic parameters may include the MePPIX triplet and singlet lifetimes in air saturated and oxygen free CDCl3 and the bimolecular quenching constant by oxygen.

Data set [2] is described as follows: Protoporphyrin IX fluorescence lifetime quenching (singlet excited state). Conditions: for bimolecular quenching rate constant for singlet excited state quenching (in words) / Singlet Quenching Rate Constant: PPIX; for Singlet Quenching Rate Constant: acetonitrile solutions at room temperature. As for the experimental part:
Fluorescence lifetime measurements are a convenient way to measure singlet state quenching by stabilizers. Protoporphyrin IX decay traces were recorded in the absence and presence of compound I(a)(1) and alkoxy […] (FIG. 3). […] The collected data shown in FIG. 3 were used to determine the bimolecular quenching rate constant for singlet excited state quenching by the compounds. The quenching rate constant may be directly extracted from the slope of the plot of the inverse fluorescence lifetime vs. the concentration of the two compounds (FIG. 4). […] The biomolecular quenching rate constants for singlet excited state (kq^S) and triplet excited state (kq^T) quenching of PPIX by stabilizers in acetonitrile solutions at room temperature is shown in Table 4, as well and the Stern-Volmer rate constants.

A short description of data set [3]: Voltammetry, redox potential with respect to Ag/AgCl reference electrode. Conditions: vs Ag/AgCl; for second redox couple, oxidation peak: the small peak where two are given.
Description: For these experiments, dimethylsulfoxide (DMSO) and tetrabutylammonium perchlorate (TBAP) were obtained from Sigma Aldrich and used as received. […] Platinum wires (BASi MW-1032) of diameter 0.5 mm were employed for both the working electrode (WE) and counter electrode (CE). A dry-solvent tolerant Ag/AgCl reference electrode (RE) was obtained from eDAQ (Model ET072). The WE and CE were cleaned prior to each by first rinsing in acetone, then DI, followed by soaking in ˜50% aqueous H2SO4 for 10-20 minutes and then a final DI rinse. The RE electrode was cleaned prior to each use by an acetone rinse followed by DI rinse. Each sample solution was prepared in a fresh glass vial which had been rinsed with DI then acetone and allowed to dry Immediately after preparing each solution, it was purged with pure N2 gas for 15-20 minutes with the electrodes in place. Voltammetry data was collected shortly afterwards with an EG&G PAR 263 A Potentiostant/Galvanostat operated using a Labview-based control program. Scans were performed at various potential ranges between +2.0V and −2.0V (vs Ag/AgCl); all scan rates were constant at 200 mV/s.
A short description of data set [4]: Protoporphyrin IX triplet state quenching by laser flash photolysis. Conditions: for Triplet Quenching Rate Constant: PPIX, acetonitrile solutions at room temperature. As for the experimental part:
To investigate if triplet states of protoporphyrin IX are quenched by the two compounds, laser flash photolysis experiments were performed. In these experiments, a deoxygenated acetonitrile solution of protoporphyrin IX is excited with short laser pulses from a Nd-YAG laser (355 nm, 5 ns pulse width). Difference absorption kinetic traces were recorded at different observation wavelengths (300 to 800 nm) and from these a transient absorption spectrum was constructed (FIG. 5A). […] In addition, two bands are observed at 320 and 440 nm, which are assigned to the triplet-triplet absorption of protoporphyrin IX. […] Triplet absorption kinetics at 440 nm may be utilized to obtain triplet quenching rate constants by the stabilizers. Triplet decay traces at 440 nm were recorded in the presence of different amounts of the alkoxy […], Formulas […])(1), and the mixture of II(b)(1) and II(c)(1). The decay traces were fitted to a first-order kinetics. The plot of these pseudo-first-order rate constants (inverse decay lifetime) vs. the concentration of the two compounds gives directly the bimolecular triplet quenching rate constant from the slope (FIG. 6). The biomolecular quenching rate constants for singlet excited state (kq^S) and triplet excited state (kq^T) quenching of PPIX by stabilizers in acetonitrile solutions at room temperature is shown in Table 4, as well and the Stern-Volmer rate constants.

A short description of data set [5]: Luminescence experiments in ethanol (room temperature and 77 K matrix). How it is done:
Because Formula II(a)(1) contains a ketone functionality, intersystem crossing into the triplet state could be promoted after photoexcitation due to spin-orbit coupling. Stabilizer triplet states could generate singlet oxygen. Low-temperature luminescence experiments in a ethanol matrix at 77 K were performed in search for phosphorescence of potential triplet states.
The quenching mechanism of protoporphyrin IX singlet excited states and triplet states by the compound of Formulas I, II, and III may be further clarified. A simple energy transfer mechanism would depend on the singlet and triplet energies of compounds of Formula I and protoporphyrin IX. To get information on excited state energies of the stabilizer, luminescence experiments were performed. […] However, weak luminescence was observed of the compound of Formula I(a)(1) in a frozen ethanol matrix at 77 K. The luminescence with maximum at 575 nm (FIG. 7c) originates from the compound of Formula I(a)(1), because the luminescence excitation spectrum (FIG. 7b) matches well the absorption spectrum of the compound of Formula I(a)(1) (FIG. 5a). The luminescence lifetime could not be determined, because of the weak signal intensity. […] If the luminescence at 575 nm is the fluorescence, then the Stoke's shift is unusually large. Independent of the assignment of the luminescence to the fluorescence or phosphorescence, this excited state energy is higher than singlet and triplet energies of protoporphyrin IX and rules out a simple energy transfer quenching mechanism. Another possible quenching mechanism is electron transfer quenching which would depend on the redox potentials of the protoporphyrin and the two quencher compounds.

The mark [6] stands for this setting: 0.01 M in 0.1 M TBAP in DMSO, 200 mV/s.

Consider `COC(=O)C(C#N)=C1c2ccccc2-c2ccccc21` [Formula I(a)(1)], for which, in data set [1] (considering triplet lifetime ~1 μs in air saturated DMSO), the “rate constant from Stern-Volmer plot, if suppression entirely caused by triplet quenching” value is roughly 3e+07 M⁻¹ s⁻¹. Moreover, the “quenching rate constant from Stern-Volmer constant, if singlet excited state is quenched” value in data set [1] (using fluorescence lifetime 12.7 ns) was found to be 2.4e+09 M⁻¹ s⁻¹. For the same molecule, in data set [2] (acetonitrile), the “bimolecular quenching rate constant for singlet excited state quenching (in words)” value is listed as “high quenching rate constant” and the “rate constant of PPIX singlet quenching using fluorescence quenching” value was 5.3e+09 M⁻¹ s⁻¹. For the same molecule, the “Singlet Quenching Rate Constant” value in data set [2] is recorded as 5.3 10^9 M^−1s^−1. Moreover, in data set [2] (acetonitrile, alkoxy crylene even at 0.1 M), the “quenching of protoporphyrin IX fluorescence (fluorescence lifetime)” value is given as “significantly quenches”. In data set [3] (setting [6]), the “first (or only) redox couple, oxidation peak” value is listed as −560 mV; the “first (or only) redox couple, reduction peak” value was −757 mV; the “second redox couple, reduction peak” value is −1297 mV. Moreover, in data set [3] (estimated from the peaks), the “first (or only) redox couple, redox potential” value is −658 mV and the “second redox couple, redox potential” value is reported as “approximately −1199 mV”. Moreover, the “second redox couple, oxidation peak” value in data set [3] was −1102 mV. For the same molecule, in data set [4], the “PPIX triplet quenching rate constant by laser flash photolysis” value came out at 6.1e+06 M⁻¹ s⁻¹ and the “Triplet Quenching Rate Constant” value is 0.0061 10^9 M^−1s^−1. Besides, in data set [5] (ethanol matrix at 77 K), the luminescence maximum was 575 nm. Also, the “fluorescence at room temperature” value in data set [5] (ethanol solution) was “did not give detectable fluorescence”.

In the case of `COC(=O)C(C#N)=C1c2ccccc2C(=O)c2ccccc21` [Formula II(a)(1)], the “Stern-Volmer Constant of ^1O2 Suppression” value in data set [1] was determined as 240 M⁻¹. Also, in data set [2] (acetonitrile), the “bimolecular quenching rate constant for singlet excited state quenching (in words)” value is on record as “high quenching rate constant”. For the same molecule, in data set [2], the “Singlet Quenching Rate Constant” value is reported as 5.2 10^9 M^−1s^−1. In data set [3], the “second redox couple, oxidation peak (large)” value was “+430 mV” and the “second redox couple, oxidation peak” value was −1466 mV. In addition, the “second redox couple, reduction peak” value in data set [3] (setting [6]) is −1537 mV. Also, the “second redox couple, redox potential” value in data set [3] (estimated from the peaks) is given as −1501 mV. Besides, in data set [4], the “PPIX triplet quenching rate constant by laser flash photolysis” value turned out to be 3.2e+09 M⁻¹ s⁻¹ and the “Triplet Quenching Rate Constant” value was 3.2 10^9 M^−1s^−1. Moreover, in data set [4] (triplet decay at 440 nm), the “PPIX triplet quenching (in words)” value is “most efficient quencher”. In addition, in data set [5] (ethanol matrix at 77 K), the luminescence maximum is given as 492 nm and the luminescence quantum yield entry is “less than 1%”.
